Data from US11505556B2, “Halogenated derivatives of morphinans and uses thereof” (Xalud Therapeutics, Inc., priority 2017, dated 2022).
Like-named read-outs stand apart in the source and are kept apart here.

Columns and labels:
[1] = system: bone fracture pain, paw withdrawal threshold; assay: Mouse bone fracture model, intraperitoneal; type: in vivo
Excerpt: Each group had n=10 mice.

[2] = system: surgical pain (paw incision), paw withdrawal threshold; assay: Mouse paw incision model, morphine potentiation
Description: Manual testing with von Frey hairs was performed at the times indicated in the graphs. The animals were placed in individual Perspex boxes on a raised metal mesh for at least 40 min before the test. A series of graduated von Frey hairs (0.07, 0.16, 0.4, 0.6, and 1.0 g) were applied to the plantar surface of the left paw, in sequence. Each von Frey hair was applied 10 times on a one-sec-on-one-sec-off protocol, with each hair slightly bent. A paw withdrawal upon this hind-paw stimulation for a given von Frey hair registering 5 responses out of 10 trials was recorded the paw withdrawal threshold (PWT). A baseline PWT was determined each day for 3 days before surgery. […] In addition, the PWT was determined before dosing and 1, 2, and 4 hours after dosing.
In both cases, morphine was dosed at 1 mg/kg IP.

[3] = system: TLR4 (LPS-stimulated NO production, BV-2 mouse microglia cell line); assay: NO assay: inhibition of LPS-induced NO production in BV-2 microglia (iNOS cellular); type: cell-based; details: Mus musculus
Excerpt: NO assay: Microglia are the resident cells of the innate immune system in the central nervous system, and TLR4 is primarily expressed by microglia rather than astrocytes or neurons in the CNS. Given this expression profile, the BV-2 mouse microglia cell line was used as the model system of microglia, as these cells recapitulate many of the responses of primary microglia with high fidelity. TLR4 activation induces the downstream production of the inflammatory factor NO, which contributes to the development of neuropathic pain and drug addiction. BV-2 murine microglia were grown in supplemented DMEM (including 10% FBS, 50 unit mL^−1 penicillin, 50 μg·mL^−1 streptomycin). BV-2 cells were detached from the flask by trypsin digestion when ˜80% confluence was reached. Cells were seeded at a density of 4×10^4 cells per well in 96-well plates. After overnight incubation, media was aspirated and changed to DMEM media without FBS. Cells were then treated with LPS (200 ng/ml) and different concentrations of the testing compounds. After 24 h treatment, 100 μL of supernatant media was removed after cells were treated for 24 h and added to flat black 96-well microfluor plates (Thermo Scientific, MA, USA). Subsequently, 10 μL of 2, 3-diaminonaphthalene (0.05 mg·mL^−1 in 0.62 M HCl) was added to each well and incubated for 15 min. The reaction was quenched by addition of 5 μL of 3 M NaOH and the plate was read on a Beckman Coulter DTX880 reader (Fullerton, Calif., USA) with excitation at 360 nm and emission at 430 nm.
N chain NTX: This experimentation involved an in vitro assay where mouse BV2 cells were treated with LPS, which results in the release of nitric oxide (NO). Blockade of TLR4 activity results in reduced NO production. Therefore, IC50 values were determined for test compounds that antagonize TLR4 activity. A series of test compounds were prepared, with different N-alkyl chains replacing the cyclopropyl methyl found in naltrexone. Cell viability was also measured by a standard assay, e.g., measurement of the release of cytoplasm-resident enzymes in the tissue culture supernatant or media to detect cell loss/lysis/rupture. A dose-inhibition curve was generated by testing the TLR4 antagonist compound for the ability to block LPS-stimulated iNOs induction. In FIG. 7, the inhibition levels across a range of doses are graphed, along with a regression curve. The IC50 value—50% inhibition level—is also provided, graphed against the length of the alkyl chain. Note that with longer N-alkyl chain the IC50 was reduced, although cell viability became problematic.
FIGS. 8B to 8D show the results of the inhibition of NO production from LPS-stimulated BV2 cells using the assay described above.

[4] = molecular target: iNOS (Homo sapiens, UniProt P35228); assay: iNOS enzyme inhibition; type: biochemical
[5] = molecular target: hERG (Homo sapiens, UniProt Q12809); assay: hERG inhibition
[6] = system: off-target screening panel; assay: Off-target inhibition screening (whole panel); details: 10 μM test concentration; hit = inhibition at or above the 50% level
Excerpt: (§1) In addition to the animal studies presented above in Examples 1-9, the results of in vitro testing of several of the compounds (i.e., XT-203, XT-204, and XT-206 through XT-217) are shown in Table 5 and Table 6. […]. Nine additional compounds had two or fewer off-target hits in the screening. […] These compounds spanned all of the tested N-modification classes. […]. Thus, the medicinal chemistry approach taken in this series of fluorinated compounds can yield low off-target activity and longer metabolic lifetime while preserving TLR4 antagonism. It is appreciated that further development of compounds in this class, using techniques known to those skilled in the art, may yield additional compounds with desirable pharmacologic and toxicologic characteristics.

[7] = Hepatocyte elimination of parent compound, spread across species; type: in vitro ADME; details: mouse, rat, dog, monkey, human, hepatocytes; lowest to highest species value; read-out: range of hepatocyte elimination half-life values across species
Description: Hepatocyte Elimination: (+)-NTX, AK-17 and XT-203 were incubated with cultured hepatocytes from the species listed in FIG. 9 and Table 4, and samples of the culture supernatant were collected over time. Samples were concentrated by nitrogen drying followed by reconstitution with 40% methanol for LC/MS analysis The data points were analyzed using the WinNonLin pharmacokinetics software package, and a half-life was determined that describes the rate of parent elimination. […].
as §1

[8] = in vitro; details: mouse, hepatocytes
[9] = in vitro; details: rat, cultured hepatocytes
[10] = in vitro; details: dog, cultured hepatocytes
[11] = in vitro; details: monkey, cultured hepatocytes
[12] = in vitro; details: human, cultured hepatocytes
[13] = system: Human hepatocytes; assay: Hepatocyte elimination of parent compound; details: cultured hepatocytes
[14] = molecular target: Adenosine A2A (Homo sapiens, UniProt P29274); assay: Off-target screening; type: binding
Excerpt: as §1

[15] = molecular target: Cannabinoid CB1 (Homo sapiens, UniProt P21554); assay: Off-target screening; type: binding
Excerpt: as §1

[16] = molecular target: T1, Adrenergic α2A (Homo sapiens, UniProt P08913); assay: Off-target screening; type: binding; details: 10 μM
T1 sequence (P08913 1-465): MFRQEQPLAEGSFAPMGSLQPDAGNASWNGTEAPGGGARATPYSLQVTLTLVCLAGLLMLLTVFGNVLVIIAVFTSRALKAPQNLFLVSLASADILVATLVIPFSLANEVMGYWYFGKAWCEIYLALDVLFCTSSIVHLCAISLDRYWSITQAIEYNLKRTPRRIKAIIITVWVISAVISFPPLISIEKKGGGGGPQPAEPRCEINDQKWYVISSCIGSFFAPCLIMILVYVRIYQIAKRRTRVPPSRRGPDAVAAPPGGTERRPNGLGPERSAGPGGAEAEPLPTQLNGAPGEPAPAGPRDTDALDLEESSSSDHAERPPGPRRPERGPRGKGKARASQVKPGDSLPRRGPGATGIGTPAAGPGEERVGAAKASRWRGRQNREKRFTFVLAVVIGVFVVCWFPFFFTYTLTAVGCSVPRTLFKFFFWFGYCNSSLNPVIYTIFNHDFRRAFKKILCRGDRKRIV
Excerpt: as §1

[17] = system: CCI neuropathic pain (mechanical allodynia); assay: Rat CCI model, oral and subcutaneous phases (Study R042); type: in vivo; details: gabapentin 200 mg/kg
Description: Rat chronic constriction injury model-Oral and subcutaneous (+)-NTX and XT-203: An efficacy study was conducted in the rat chronic constriction injury (CCI) model (Study R042). The study design comprised two phases. A five-day period of oral (PO) dosing and behavioral testing was followed by a five-day period of subcutaneous (SC) dosing, with a two-day washout period between these periods. Dosing on each day was performed three times a day (TID). Behavioral testing for mechanical allodynia was performed on the first and fifth days of dosing, at three times on those days: before the first dose of the day, 30 minutes after the first dose of the day, and 30 minutes after the second dose of the day. Thus, day 5 testing is designated as pre5.1 (before the first dose of the day), 5.1 (fifth day, after first dose) or 5.2 (fifth day, after second dose). On day 5 of the subcutaneous dosing phase, a second testing period was introduced 60 minutes after the second dose. (+)-NTX (6, 18, and 60 mg/kg) and XT-203. Mechanical allodynia was tested manually, using the Chaplan up-down testing method. The results are shown in FIGS. 10A and 10B, with the oral (PO) phase presented as the first pair of graphs. After the two-day washout, the subcutaneous (SC) phase was carried out with the results shown in the graphs at FIGS. 10C and 10D.
The CCI model was well established in this study, with allodynic response thresholds between 2 and 3 grams (presurgical baseline thresholds at 15 g, not shown). […] This is especially remarkable given the extremely rapid metabolism and pharmacokinetics of (+)-NTX (see FIG. 9). Here, the dampening of efficacy due to lack of significant amounts of parent compound is particularly evident. Thus, the appropriate dose-ranging conditions in animal models should reflect (+)-NTX serum levels during efficacy testing, to match pharmacokinetics with pharmacodynamics. […] Efficacy is only observed after the first dose on day 5. Thus, changes designed to improve compound stability do provide improved efficacy.

[18] = Microglia, Table 6, unit inferred, footnote: Indicator of TL4 antagonism
[19] = LPS (200 ng/ml), 24 h, BV-2 cells, Table 3
[20] = read-out: iNOS enzyme, Table 6, unit inferred

hERG, sequence (Q12809 whole entry): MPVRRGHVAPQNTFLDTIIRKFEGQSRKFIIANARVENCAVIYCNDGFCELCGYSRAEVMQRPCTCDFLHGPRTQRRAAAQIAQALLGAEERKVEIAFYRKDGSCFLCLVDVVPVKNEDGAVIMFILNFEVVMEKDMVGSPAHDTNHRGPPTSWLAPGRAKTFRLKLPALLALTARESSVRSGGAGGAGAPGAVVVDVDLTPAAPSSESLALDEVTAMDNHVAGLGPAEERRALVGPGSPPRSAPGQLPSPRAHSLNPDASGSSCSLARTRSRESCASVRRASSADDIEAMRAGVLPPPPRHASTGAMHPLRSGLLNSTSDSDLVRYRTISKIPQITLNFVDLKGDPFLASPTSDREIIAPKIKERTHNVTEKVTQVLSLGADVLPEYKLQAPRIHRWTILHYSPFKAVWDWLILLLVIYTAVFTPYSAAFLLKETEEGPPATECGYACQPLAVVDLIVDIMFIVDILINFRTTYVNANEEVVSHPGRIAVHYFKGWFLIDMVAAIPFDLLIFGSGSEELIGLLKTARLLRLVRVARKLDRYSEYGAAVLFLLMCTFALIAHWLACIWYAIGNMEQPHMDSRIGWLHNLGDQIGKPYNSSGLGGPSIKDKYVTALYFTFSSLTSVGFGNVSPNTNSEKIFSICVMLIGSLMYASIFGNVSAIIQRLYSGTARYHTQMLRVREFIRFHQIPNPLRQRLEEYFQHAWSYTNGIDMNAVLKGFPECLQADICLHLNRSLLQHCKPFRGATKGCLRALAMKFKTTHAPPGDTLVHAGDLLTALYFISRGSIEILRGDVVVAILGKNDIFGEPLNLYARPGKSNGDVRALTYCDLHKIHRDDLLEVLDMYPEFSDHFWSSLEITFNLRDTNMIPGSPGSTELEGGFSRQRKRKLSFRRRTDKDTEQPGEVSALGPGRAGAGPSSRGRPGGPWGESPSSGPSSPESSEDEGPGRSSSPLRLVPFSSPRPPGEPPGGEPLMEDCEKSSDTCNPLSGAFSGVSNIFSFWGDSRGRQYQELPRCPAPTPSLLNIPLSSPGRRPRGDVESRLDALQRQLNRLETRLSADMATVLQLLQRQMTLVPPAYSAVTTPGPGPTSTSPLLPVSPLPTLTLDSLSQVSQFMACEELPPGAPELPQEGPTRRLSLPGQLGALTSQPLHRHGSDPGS
iNOS, sequence (P35228 whole entry): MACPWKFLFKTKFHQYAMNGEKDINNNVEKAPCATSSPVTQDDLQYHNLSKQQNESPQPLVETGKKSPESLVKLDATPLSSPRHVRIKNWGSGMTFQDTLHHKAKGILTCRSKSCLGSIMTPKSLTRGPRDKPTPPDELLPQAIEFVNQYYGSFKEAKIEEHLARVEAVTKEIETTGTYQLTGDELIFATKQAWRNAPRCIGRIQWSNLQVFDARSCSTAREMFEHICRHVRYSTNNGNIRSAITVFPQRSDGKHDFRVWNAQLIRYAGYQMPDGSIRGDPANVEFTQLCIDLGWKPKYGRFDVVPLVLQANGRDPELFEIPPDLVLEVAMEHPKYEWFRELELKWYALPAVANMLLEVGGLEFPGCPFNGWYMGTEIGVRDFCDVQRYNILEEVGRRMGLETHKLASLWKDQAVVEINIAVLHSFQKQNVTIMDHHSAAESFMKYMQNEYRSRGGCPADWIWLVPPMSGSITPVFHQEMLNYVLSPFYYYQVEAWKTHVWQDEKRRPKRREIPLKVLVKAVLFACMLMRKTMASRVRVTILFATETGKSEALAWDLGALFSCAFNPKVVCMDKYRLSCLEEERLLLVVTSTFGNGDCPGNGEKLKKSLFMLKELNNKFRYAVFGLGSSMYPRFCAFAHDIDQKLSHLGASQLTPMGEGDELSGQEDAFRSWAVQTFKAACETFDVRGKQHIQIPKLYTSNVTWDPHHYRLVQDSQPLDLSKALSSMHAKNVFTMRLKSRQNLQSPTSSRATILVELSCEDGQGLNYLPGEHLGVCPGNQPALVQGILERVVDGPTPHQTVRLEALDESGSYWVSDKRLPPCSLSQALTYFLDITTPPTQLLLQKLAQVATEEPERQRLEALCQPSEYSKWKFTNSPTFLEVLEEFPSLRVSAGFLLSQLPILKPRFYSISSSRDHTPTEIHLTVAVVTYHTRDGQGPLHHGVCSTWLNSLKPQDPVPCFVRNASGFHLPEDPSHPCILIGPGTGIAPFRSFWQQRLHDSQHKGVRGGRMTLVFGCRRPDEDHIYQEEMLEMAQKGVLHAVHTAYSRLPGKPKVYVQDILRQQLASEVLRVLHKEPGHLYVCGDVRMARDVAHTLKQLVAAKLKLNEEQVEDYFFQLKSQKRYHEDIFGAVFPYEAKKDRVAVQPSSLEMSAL
Adenosine A2A, sequence (P29274 whole entry): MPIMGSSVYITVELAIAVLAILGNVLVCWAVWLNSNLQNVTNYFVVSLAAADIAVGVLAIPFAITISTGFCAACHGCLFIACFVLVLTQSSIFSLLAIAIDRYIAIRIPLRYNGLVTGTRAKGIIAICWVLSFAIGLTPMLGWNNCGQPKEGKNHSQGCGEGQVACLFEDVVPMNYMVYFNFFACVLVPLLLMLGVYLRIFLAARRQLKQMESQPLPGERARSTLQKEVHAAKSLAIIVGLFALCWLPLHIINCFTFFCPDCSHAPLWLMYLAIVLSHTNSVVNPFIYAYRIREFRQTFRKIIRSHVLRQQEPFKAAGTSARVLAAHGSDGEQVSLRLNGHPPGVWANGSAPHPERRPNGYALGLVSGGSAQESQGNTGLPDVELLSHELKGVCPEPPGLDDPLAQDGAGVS
Cannabinoid CB1, sequence (P21554 whole entry): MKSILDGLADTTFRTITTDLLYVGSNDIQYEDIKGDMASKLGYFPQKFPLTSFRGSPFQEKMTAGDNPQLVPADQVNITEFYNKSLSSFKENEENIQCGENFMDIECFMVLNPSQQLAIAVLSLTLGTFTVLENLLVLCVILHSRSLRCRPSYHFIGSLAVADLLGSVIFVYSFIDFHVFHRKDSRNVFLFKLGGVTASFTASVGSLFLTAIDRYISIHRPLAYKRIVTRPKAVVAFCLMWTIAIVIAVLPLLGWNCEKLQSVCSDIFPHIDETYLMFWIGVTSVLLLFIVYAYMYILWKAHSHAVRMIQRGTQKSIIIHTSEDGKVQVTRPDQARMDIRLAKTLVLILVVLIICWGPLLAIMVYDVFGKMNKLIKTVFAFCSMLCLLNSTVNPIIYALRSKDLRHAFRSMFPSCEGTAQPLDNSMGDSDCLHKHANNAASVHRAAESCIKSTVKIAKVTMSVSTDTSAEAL

## CN1CC[C@]23c4c5ccc(O)c4O[C@H]2[C@@H](O)C=C[C@H]3[C@H]1C5 [Morphine, morphine]
[1]; IP, morphine 1, 2, 3, 5 mg/kg, XT-203 6, 10, 18, 30 mg/kg, (+)-NTX 6, 18, 30, 60 mg/kg, dose-dependent
  effect on PWT in mouse fracture pain model: increased the PWT
[1]; mouse fracture model, 5 mg/kg IP, 1 hour after dosing, gone from two hours onward
  behaviour observed at 5 mg/kg: some mice showing walking anti-clockwise
[2]; morphine 1 mg/kg IP alone
  PWT, 2 hours after dosing: 0.11 ± 0.033 g
  PWT, 4 hours after dosing: 0.10 ± 0.014 g
[2]; morphine 1 mg/kg IP alone, baseline 0.11±0.015 g
  PWT, 1 hour after dosing: 0.20 ± 0.046 g
[2]; morphine dose groups
  adverse effects during observation: No significant adverse effects

## COc1ccc2c3c1O[C@@H]1C(F)CCC4[C@H](C2)N(C(=O)C2CC2)CC[C@]341 (some centres unmarked) [XT-206]
[3]; [18]
  IC50: > 10 µM
[3]; [19]
  IC50: > 10 µM
[4]
  IC50: > 10 µM
[4]; [20]
  IC50: > 10 µM
[5]
  IC50: > 10 µM
[6]
  off-target hits in the screening: no off-target hits and none
[7]
  half-life: 14.4 to 120 min
[8]
  half-life: 18.3 min
[9]
  half-life: 14.4 min
[10]
  half-life: 80.8 min
[11]
  half-life: 15.5 min
[12]
  half-life: 120 min
[13]
  parent duration in human hepatocytes relative to XT-203: longer parent duration than XT-203

## COc1ccc2c3c1O[C@@H]1C(F)CCC4[C@H](C2)N(C(=O)c2ccccc2)CC[C@]341 (some centres unmarked) [XT-207]
[3]; [18]
  IC50: > 10 µM
[3]; [19]
  IC50: > 10 µM
[4]
  IC50: > 10 µM
[4]; [20]
  IC50: > 10 µM
[5]
  IC50: > 10 µM
[6]
  off-target hits in the screening: no off-target hits and none
[8]
  half-life: 22.4 min
[9]
  half-life: 11.6 min
[10]
  half-life: 39.8 min
[11]
  half-life: 12.4 min
[12]
  half-life: 37.4 min

## COc1ccc2c3c1O[C@@H]1C(F)CCC4[C@H](C2)N(S(=O)(=O)c2ccccc2)CC[C@]341 (some centres unmarked) [XT-208]
[3]; [18]
  IC50: > 10 µM
[3]; [19]
  IC50: > 10 µM
[4]
  IC50: > 10 µM
[4]; [20]
  IC50: > 10 µM
[5]
  IC50: > 10 µM
[6]
  off-target hits in the screening: two off-target hits
[14]
  inhibition at 10 µM: 64%
[15]
  inhibition at 10 µM: 54%
[7]
  half-life: 8.7 to 19.7 min
[8]
  half-life: 10.9 min
[9]
  half-life: 12.7 min
[10]
  half-life: 14.6 min
[11]
  half-life: 8.7 min
[12]
  half-life: 19.7 min

## COc1ccc2c3c1O[C@@H]1C(F)CCC4[C@H](C2)N(C(=O)Cc2ccccc2)CC[C@]341 (some centres unmarked) [XT-211]
[3]; [18]
  IC50: > 10 µM
[3]; [19]
  IC50: > 10 µM
[5]
  IC50: > 10 µM
[6]
  off-target hits in the screening: no off-target hits and none
[8]
  half-life: 19 min
[9]
  half-life: 11.9 min
[10]
  half-life: 19.1 min
[11]
  half-life: 12.9 min
[12]
  half-life: 32.5 min

## COc1ccc2c3c1O[C@@H]1C(F)CCC4[C@H](C2)N(S(=O)(=O)C2CC2)CC[C@]341 (some centres unmarked) [XT-212]
[3]; [18]
  IC50: > 10 µM
[3]; [19]
  IC50: > 10 µM
[5]
  IC50: > 10 µM
[6]
  off-target hits in the screening: no off-target hits and none
[8]
  half-life: 19.8 min
[9]
  half-life: 14.4 min
[10]
  half-life: 86.4 min
[11]
  half-life: 21.2 min
[12]
  half-life: 61.2 min
[13]
  parent duration in human hepatocytes relative to XT-203: longer parent duration than XT-203

## COc1ccc2c3c1O[C@@H]1C(F)CCC4[C@H](C2)N(C2CC2)CC[C@]341 (some centres unmarked) [XT-214]
[3]; [18]
  IC50: > 10 µM
[3]; [19]
  IC50: > 10 µM
[5]
  IC50: > 10 µM
[6]
  off-target hits in the screening: one off-target hit
[16]
  inhibition at 10 µM: 51%
[8]
  half-life: 18.7 min
[9]
  half-life: 11.8 min
[10]
  half-life: 37.7 min
[11]
  half-life: 14.1 min
[12]
  half-life: 52.9 min

## COc1ccc2c3c1O[C@@H]1C(F)CCC4[C@H](C2)N(S(=O)(=O)Cc2ccccc2)CC[C@]341 (some centres unmarked) [XT-217]
[3]; [18]
  IC50: > 10 µM
[3]; [19]
  IC50: > 10 µM
[5]
  IC50: > 10 µM
[6]
  off-target hits in the screening: two off-target hits
[14]
  inhibition at 10 µM: 61%
[15]
  inhibition at 10 µM: 56%
[7]
  half-life: 9.2 to 14.1 min
[8]
  half-life: 12.6 min
[9]
  half-life: 10.2 min
[10]
  half-life: 9.7 min
[11]
  half-life: 9.2 min
[12]
  half-life: 14.1 min

## NCC1(CC(=O)O)CCCCC1 [gabapentin, reference compound]
[17]
  reversal of mechanical allodynia, positive control: reversals of allodynia
